Test results taken from PubChem BioAssay AID489020 (Sanford-Burnham Center for Chemical Genomics, 2010).
Active and inactive are the calls of the source.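 The calls were made as follows: active = mean IC50, the dose halving TNF-driven NF-kB light signal, at or below a set limit; inactive = the rest.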

System: HEK-293T NF-kB-Luc, TNFa-induced, luminescence, 14 h
Assay: TNFa-driven NF-kB luciferase inhibition, HEK-293T – cell-based, HEK-293T NF-kB-Luc, luminescence, hits from both screens, counter-screen for BCR/TCR NF-kB inhibitor project, dose response (AID 489020);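 also: TNF-alpha stimulus at 0.1 ng/mL added with the seeded cells; selectivity counterscreen for hits from B- and T-cell receptor NF-kB screens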

Structure (SMILES)	IC50
CN(C)c1cc[n+](CC(=O)c2ccc(-c3ccccc3)cc2)cc1	3.96 µM
CCN1/C(=C/c2ccc3cc(C)ccc3[n+]2CC)Sc2ccccc21	0.32 µM
C=C1C(=O)O[C@@H]2C[C@@H](C)[C@@H]3C=CC(=O)[C@@]3(C)[C@@H](O)[C@H]12	> 80 µM (inactive)
CCCCCCCCCCOC(=O)Cn1c(COc2ccccc2OC)[n+](C)c2ccccc21	3.08 µM
O=C(COC(=O)c1ccc[nH]c1=O)Nc1ccc(N2CCCCC2)cc1	1.2 µM
Cc1nn(-c2ccccc2)c(C)c1/C=N/NC(=O)c1cc(-c2cccs2)[nH]n1	3.54 µM
OCCCNc1nccc(-c2cc(Nc3cccc(Cl)c3)ncn2)n1	0.55 µM
CC1CCCN(c2ccc([N+](=O)[O-])cc2C(=O)c2ccccc2)C1 (stereo not given)	10.1 µM
COc1cc2nc(NC(=O)c3ccccc3)sc(=O)c2cc1OC	> 80 µM (inactive)
Nc1ncnc2c1ccn2[C@@H]1O[C@H](CO)[C@@H](O)[C@H]1O	7.42 µM
O=C(NCCc1ccccc1F)c1ccc2c(c1)OCCO2	1.42 µM
Cc1cc(NNC(=O)Nc2cccc(Cl)c2)nc2c1c(C)nn2C	0.47 µM
Cc1nn(C(C)(C)C)c(C)c1/C=N/OC(=O)Nc1ccc(Cl)cc1	< 0.16 µM
O=C(CN1C(=O)c2ccccc2S1(=O)=O)c1ccc2c(c1)OCCO2	0.2 µM
COc1ccc(CN(C)c2ccc(S(=O)(=O)N3CCN(C)CC3)cc2[N+](=O)[O-])cc1OC	< 0.16 µM
CCOc1cc(S(=O)(=O)NCc2ccncc2)ccc1Cl	< 0.16 µM
CC(Nc1ncnc2sccc12)c1ccccc1 (stereo not given)	0.6 µM
CCCCCn1c(=O)[nH]c2cc(C(=O)N3CCN(Cc4ccc5c(c4)OCO5)CC3)ccc2c1=O	< 0.16 µM
CC(C)Cc1cc(C(C)(C)C)ccc1OC(=S)N(C)C	> 80 µM (inactive)
Cc1cc(Cl)c(S(=O)(=O)N2CCN(c3ccc(F)cc3)CC2)cc1OCC(=O)NC1CCCCC1	< 0.16 µM
COc1ccc(C(=O)Nc2nc3ccccc3s2)c(OC)c1	0.22 µM
COc1ccc(-c2nc(-c3ccccn3)no2)cc1	2 µM
Cn1nc(CC(=O)Nc2ccc3c(c2)OCCO3)c2ccccc2c1=O	0.6 µM

Structure (SMILES)	IC50
CC(C)(C)c1ccc(C(=O)N2CCCCCC2=O)cc1	1.78 µM
Cc1cc(C(=O)COC(=O)c2ccccc2O)c(C)n1CC1CCCO1 (stereo not given)	0.38 µM
N=c1c2c(-c3ccccc3)c(-c3ccccc3)n(Cc3ccccc3)c2ncn1CCCn1ccnc1	6.97 µM
COc1cccc2c1C(=O)c1c(O)c3c(c(O)c1C2=O)C[C@@](O)(C(=O)CO)C[C@@H]3O[C@H]1C[C@H](N)[C@@H](O)[C@H](C)O1	> 80 µM (inactive)
CN=c1scc(-c2ccccc2F)n1/N=C/c1ccc[nH]1	1.21 µM
COc1ccc(CNc2ncc(-c3ccc(F)cc3)n2C)c2ccccc12	17.8 µM
COc1cccc(NC(=O)Nc2cccc(C(=O)O)c2)c1	5.44 µM
C[C@@H]1O[C@@H](O[C@@H]2C=C3CC[C@@H]4C(CC[C@]5(C)[C@@H](c6ccc(=O)oc6)CC[C@]45O)[C@@]3(C)CC2)[C@H](O)[C@H](O)[C@H]1O (stereo not given in full)	< 0.16 µM
O=C(NCCNCCO)C1(C(F)(F)F)C/C(=C\CCO)CCCO1 (stereo not given)	> 80 µM (inactive)
O=C1/C(=C/c2ccccc2)C[C@@]2(O)[C@H]3Cc4ccc(O)c5c4[C@@]2(CCN3CC2CC2)C1O5 (stereo not given in full)	8.71 µM
c1ccc2sc(Sc3ncnc4sccc34)nc2c1	21.4 µM (inactive)
CN(C(=O)OC(C)(C)C)c1ccc(-c2nc3ccccc3s2)cc1	< 0.16 µM
Cc1cc(CSc2ccccc2)ccc1NC(=O)c1ccc(CN2CCOCC2)cc1	0.26 µM
C#CC(=O)N(c1cc(OC)ccc1OC)C(C(=O)NC1CCCC1)c1cccs1 (stereo not given)	3.85 µM
COc1ccc(CCNc2ncnc3sccc23)cc1OC	< 0.16 µM
CCOc1ccc(-c2cc(CCCC(=O)Nc3cccc(OC)c3)no2)cc1	14 µM
Cc1ccc(C(=O)CN2C(=O)c3ccccc3S2(=O)=O)cc1	1.89 µM
O=C(CCl)N=c1sccn1Cc1ccc(Cl)cc1Cl	21 µM (inactive)
COc1ccc(CCNc2c(C)c(C)nc3ncnn23)cc1	0.44 µM
CC1(c2ccc3ccccc3c2)NC(=O)N(CC(=O)N2CCN(Cc3ccc(C#N)cc3)CC2)C1=O (stereo not given)	0.21 µM
C=CCn1c(C)cc(C(=O)CN2C(=O)c3ccccc3S2(=O)=O)c1C	0.17 µM
O=C(NCCc1ccccc1)c1ccc2c(c1)OCCCO2	0.9 µM
